We go through five compounds from article PMC10175918 (Communications Biology, 2023).

Molecules are shown by their SMILES. Where two headings read alike, the source gives them in different places.

What all share (assay): TGFα-shedding assay-based GPCR screening with chimeric Gα subunit proteins
What all share (format): cell-based

Experiment [1] concerns the target T1, 348 GPCRs (Homo sapiens, UniProt O95800).
T1 construct: expressed in transfected cells; host or cells: HEK293A
The note with it: 10µM, Favipiravir 100μM.

The target of experiment [2] is T2, 348 GPCRs (Homo sapiens, UniProt P30988).
T2 sequence (P30988 25-474): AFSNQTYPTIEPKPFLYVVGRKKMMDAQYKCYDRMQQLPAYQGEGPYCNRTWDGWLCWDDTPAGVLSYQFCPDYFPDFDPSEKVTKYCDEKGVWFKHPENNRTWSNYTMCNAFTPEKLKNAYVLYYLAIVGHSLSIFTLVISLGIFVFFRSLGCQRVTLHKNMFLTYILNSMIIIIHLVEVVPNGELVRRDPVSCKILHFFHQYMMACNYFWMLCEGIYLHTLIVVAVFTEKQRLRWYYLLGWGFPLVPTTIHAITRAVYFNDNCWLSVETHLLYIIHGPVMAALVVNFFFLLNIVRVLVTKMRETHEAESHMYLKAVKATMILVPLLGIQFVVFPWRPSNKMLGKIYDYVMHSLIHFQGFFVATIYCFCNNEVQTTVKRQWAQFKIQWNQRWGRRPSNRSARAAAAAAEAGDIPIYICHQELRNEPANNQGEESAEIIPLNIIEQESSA
The note with it: 10µM, Favipiravir 100μM.

For experiment [3], the target named is 348 GPCRs (Homo sapiens, UniProt P30989). The note with it: 10µM, Favipiravir 100μM.
Experiment [4] concerns the target T3, 348 GPCRs (Homo sapiens, UniProt P46094).
T3 construct: expressed in transfected cells; host or cells: HEK293A
T3 sequence (P46094 1-333): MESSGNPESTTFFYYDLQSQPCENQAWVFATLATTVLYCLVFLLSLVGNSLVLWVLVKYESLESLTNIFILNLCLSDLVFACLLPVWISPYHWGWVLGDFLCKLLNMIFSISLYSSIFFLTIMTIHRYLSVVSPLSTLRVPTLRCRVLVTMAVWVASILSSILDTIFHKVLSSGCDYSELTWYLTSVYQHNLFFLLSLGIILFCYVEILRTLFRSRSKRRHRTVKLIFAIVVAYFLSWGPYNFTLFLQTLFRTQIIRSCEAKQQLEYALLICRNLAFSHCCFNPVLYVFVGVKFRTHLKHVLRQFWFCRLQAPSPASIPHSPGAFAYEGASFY

Experiment [5] deals with T4, 348 GPCRs (Homo sapiens, UniProt P46095).
T4 construct: expressed in transfected cells; host or cells: HEK293A

For experiment [6], the target named is T5, 348 GPCRs (Homo sapiens, UniProt P47900).
T5 construct: expressed in transfected cells; host or cells: HEK293A
The note with it: GPCR P2Y1 (purinergic receptor P2Y, G-protein coupled, 1).

For experiment [7], the target named is T6, 348 GPCRs (Homo sapiens, UniProt Q7Z601).
T6 construct: expressed in transfected cells; host or cells: HEK293A
T6 sequence (Q7Z601 1-462): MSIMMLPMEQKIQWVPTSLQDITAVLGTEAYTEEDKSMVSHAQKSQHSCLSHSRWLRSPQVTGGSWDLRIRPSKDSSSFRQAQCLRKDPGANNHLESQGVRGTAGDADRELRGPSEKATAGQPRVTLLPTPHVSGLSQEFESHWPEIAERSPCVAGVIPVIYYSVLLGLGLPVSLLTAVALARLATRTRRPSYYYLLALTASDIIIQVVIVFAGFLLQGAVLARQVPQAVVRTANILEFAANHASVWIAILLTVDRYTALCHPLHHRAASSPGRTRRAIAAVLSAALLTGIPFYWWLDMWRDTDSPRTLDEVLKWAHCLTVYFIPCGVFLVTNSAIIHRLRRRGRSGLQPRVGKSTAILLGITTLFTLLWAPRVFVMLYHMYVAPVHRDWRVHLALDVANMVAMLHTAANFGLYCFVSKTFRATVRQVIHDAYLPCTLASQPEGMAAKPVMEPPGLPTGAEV
The note with it: 10µM, Favipiravir 100μM.

The target of experiment [8] is T7, 348 GPCRs (Homo sapiens, UniProt Q8TDV0).
T7 construct: expressed in transfected cells; host or cells: HEK293A
T7 sequence (Q8TDV0 1-419): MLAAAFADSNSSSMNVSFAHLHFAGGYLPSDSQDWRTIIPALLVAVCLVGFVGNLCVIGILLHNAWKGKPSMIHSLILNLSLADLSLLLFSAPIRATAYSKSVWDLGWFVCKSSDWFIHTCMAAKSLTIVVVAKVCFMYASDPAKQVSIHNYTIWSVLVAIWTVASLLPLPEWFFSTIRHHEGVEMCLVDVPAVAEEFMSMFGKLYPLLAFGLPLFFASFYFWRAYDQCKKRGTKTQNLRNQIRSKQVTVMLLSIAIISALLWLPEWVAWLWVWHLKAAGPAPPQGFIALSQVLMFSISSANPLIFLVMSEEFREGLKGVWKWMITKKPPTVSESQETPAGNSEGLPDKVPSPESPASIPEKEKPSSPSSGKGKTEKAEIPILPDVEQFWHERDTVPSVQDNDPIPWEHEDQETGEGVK
The note with it: 10µM, Favipiravir 100μM.

Experiment [9] addresses T8, 348 GPCRs (Homo sapiens, UniProt Q9NYW3).
T8 construct: expressed in transfected cells; host or cells: HEK293A
T8 sequence (Q9NYW3 1-318): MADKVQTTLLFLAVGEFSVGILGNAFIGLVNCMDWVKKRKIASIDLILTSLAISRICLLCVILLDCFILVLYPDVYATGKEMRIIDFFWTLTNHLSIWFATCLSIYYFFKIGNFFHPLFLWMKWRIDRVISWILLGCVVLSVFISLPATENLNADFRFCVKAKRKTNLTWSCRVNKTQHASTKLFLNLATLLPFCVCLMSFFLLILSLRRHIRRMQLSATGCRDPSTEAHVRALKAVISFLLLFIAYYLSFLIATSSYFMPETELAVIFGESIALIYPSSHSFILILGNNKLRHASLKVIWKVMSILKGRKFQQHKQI
The note with it: 10µM, Favipiravir 100μM.

[10] abbreviates: read-out: % GPCR activation compared to TPA, GPR75 (G protein-coupled receptor 75).
Setting [11] is: read-out: % GPCR activation compared to TPA, CALCR (calcitonin receptor).
Setting [12] is: read-out: % GPCR activation compared to TPA, NTSR1(CO) (neurotensin receptor 1).
Where [13] appears, read: read-out: % GPCR activation compared to TPA, GPCR XCR1 (chemokine (C motif) receptor 1/GPR5).
Setting [14] is: read-out: % GPCR activation compared to TPA, GPCR GPR6 (G protein-coupled receptor 6).
Where [15] appears, read: read-out: % GPCR activation compared to TPA, GPR142 (G protein-coupled receptor 142).
Setting [16] is: read-out: % GPCR activation compared to TPA, GPR151 (G Protein-Coupled Receptor 151).
The mark [17] stands for this setting: read-out: % GPCR activation compared to TPA, TAS2R7 (taste receptor, type 2, member 7).
Setting [18] is: GPR75 (G protein-coupled receptor 75), read-out: % GPCR activation compared to TPA.
The mark [19] stands for this setting: CALCR (calcitonin receptor), read-out: % GPCR activation compared to TPA.
The mark [20] stands for this setting: NTSR1(CO) (neurotensin receptor 1), read-out: % GPCR activation compared to TPA.
[21] abbreviates: GPR142 (G protein-coupled receptor 142), read-out: % GPCR activation compared to TPA.
[22] abbreviates: GPR151 (G Protein-Coupled Receptor 151), read-out: % GPCR activation compared to TPA.
Setting [23] is: TAS2R7 (taste receptor, type 2, member 7), read-out: % GPCR activation compared to TPA.
The mark [24] stands for this setting: GPCR XCR1 (chemokine (C motif) receptor 1/GPR5), read-out: % GPCR activation compared to TPA.
Where [25] appears, read: GPCR GPR6 (G protein-coupled receptor 6), read-out: % GPCR activation compared to TPA.

Sequence of 348 GPCRs (Homo sapiens, UniProt P30989) (P30989 whole entry): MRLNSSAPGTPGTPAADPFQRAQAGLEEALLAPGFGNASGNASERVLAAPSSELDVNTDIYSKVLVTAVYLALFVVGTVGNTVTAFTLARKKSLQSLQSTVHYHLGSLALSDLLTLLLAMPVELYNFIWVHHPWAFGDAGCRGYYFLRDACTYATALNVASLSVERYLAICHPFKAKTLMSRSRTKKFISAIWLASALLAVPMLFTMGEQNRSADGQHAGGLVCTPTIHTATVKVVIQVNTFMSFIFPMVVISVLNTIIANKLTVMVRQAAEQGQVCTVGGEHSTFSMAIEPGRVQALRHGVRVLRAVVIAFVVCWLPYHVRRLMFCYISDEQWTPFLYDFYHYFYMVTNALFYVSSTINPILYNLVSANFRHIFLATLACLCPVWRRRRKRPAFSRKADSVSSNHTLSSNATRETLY
T5 sequence (P47900 whole entry): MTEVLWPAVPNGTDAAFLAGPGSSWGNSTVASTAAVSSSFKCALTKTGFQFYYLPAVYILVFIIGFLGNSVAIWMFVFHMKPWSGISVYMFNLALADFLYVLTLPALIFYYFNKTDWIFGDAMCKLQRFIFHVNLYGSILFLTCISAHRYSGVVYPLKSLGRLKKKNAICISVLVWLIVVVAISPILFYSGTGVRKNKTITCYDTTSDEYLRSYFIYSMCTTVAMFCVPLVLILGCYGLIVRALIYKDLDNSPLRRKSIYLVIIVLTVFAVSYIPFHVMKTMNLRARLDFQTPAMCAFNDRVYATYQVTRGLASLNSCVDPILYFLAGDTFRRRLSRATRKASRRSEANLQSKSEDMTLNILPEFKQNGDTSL
T4 sequence (P46095 whole entry): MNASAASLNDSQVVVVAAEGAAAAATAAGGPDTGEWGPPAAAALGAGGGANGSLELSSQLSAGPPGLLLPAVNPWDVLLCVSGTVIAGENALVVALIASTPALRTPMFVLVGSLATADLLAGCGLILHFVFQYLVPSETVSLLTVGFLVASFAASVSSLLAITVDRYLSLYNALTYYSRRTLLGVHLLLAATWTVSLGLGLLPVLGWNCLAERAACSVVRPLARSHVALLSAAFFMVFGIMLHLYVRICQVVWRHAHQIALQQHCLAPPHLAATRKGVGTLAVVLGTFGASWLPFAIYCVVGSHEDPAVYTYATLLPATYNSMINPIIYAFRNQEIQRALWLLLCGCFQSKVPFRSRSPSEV
T1 sequence (O95800 whole entry): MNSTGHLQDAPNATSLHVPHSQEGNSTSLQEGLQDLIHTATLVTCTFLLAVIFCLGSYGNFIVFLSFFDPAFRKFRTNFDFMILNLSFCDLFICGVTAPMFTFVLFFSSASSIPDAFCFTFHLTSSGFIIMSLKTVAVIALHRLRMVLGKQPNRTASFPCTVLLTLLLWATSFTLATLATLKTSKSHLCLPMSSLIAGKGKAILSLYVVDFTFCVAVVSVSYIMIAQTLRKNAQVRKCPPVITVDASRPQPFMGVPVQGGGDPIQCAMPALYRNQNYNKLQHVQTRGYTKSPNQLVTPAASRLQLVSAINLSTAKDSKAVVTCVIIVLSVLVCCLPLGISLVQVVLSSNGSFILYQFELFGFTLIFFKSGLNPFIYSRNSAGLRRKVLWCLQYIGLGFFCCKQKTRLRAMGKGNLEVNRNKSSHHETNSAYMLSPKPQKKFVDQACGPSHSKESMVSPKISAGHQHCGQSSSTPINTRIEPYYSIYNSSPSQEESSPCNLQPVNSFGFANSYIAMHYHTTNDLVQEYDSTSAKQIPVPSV

`CC(C)OC(=O)[C@H](C)N[P@](=O)(OC[C@H]1O[C@@H](n2ccc(=O)[nH]c2=O)[C@](C)(F)[C@@H]1O)Oc1ccccc1` [sofosbuvir]: the activation at 10 µM at 348 GPCRs [1] (setting [10]) was -12.7%; at 348 GPCRs [4] (setting [13]), -0.208%; on 348 GPCRs [5] (setting [14]), -0.69%; at 348 GPCRs [8] (setting [16]) it was -2.06%; at 348 GPCRs [9] (setting [17]) it was 0.253%. The results for the activation at 100 µM at 348 GPCRs [2] (setting [11]), on 348 GPCRs [3] (setting [12]) and on 348 GPCRs [7] (setting [15]) were -2.01%, -8.04% and 3.77%, respectively. Besides, the “% GPCR activation compared to TPA” value at 348 GPCRs [6] (10µM) is -4.632%.
For the compound `NC(=O)c1nc(F)cnc1O` [favipiravir, 6-fluoro-3-hydroxy-2-pyrazinecarboxamide], the activation at 10 µM at 348 GPCRs [1] (setting [18]) was 6.14%; at 348 GPCRs [8] (setting [22]) it was -0.974%; at 348 GPCRs [9] (setting [23]), -0.16%. The activation at 100 µM at 348 GPCRs [2] (setting [19]) was -3.06%; at 348 GPCRs [3] (setting [20]) it was -1.75%; at 348 GPCRs [4] (GPCR XCR1 (chemokine (C motif) receptor 1/GPR5), 100μM, read-out: % GPCR activation compared to TPA), 0.846%; at 348 GPCRs [5] (GPCR GPR6 (G protein-coupled receptor 6), 100μM, read-out: % GPCR activation compared to TPA) it was 1.83%; at 348 GPCRs [7] (setting [21]), -0.257%. Moreover, at 348 GPCRs [6] (100μM), the “% GPCR activation compared to TPA” value was 0.4296%.
As for `CCC(CC)COC(=O)[C@H](C)N[P@](=O)(OC[C@H]1O[C@@](C#N)(c2ccc3c(N)ncnn23)[C@H](O)[C@@H]1O)Oc1ccccc1` [remdesivir], the activation at 10 µM at 348 GPCRs [1] (setting [10]) was 4.18%; at 348 GPCRs [4] (setting [13]), 0.628%; at 348 GPCRs [5] (setting [14]), 7.41%; at 348 GPCRs [8] (setting [16]) it was -3.65%; on 348 GPCRs [9] (setting [17]), 0.159%. Besides, the figures for the activation at 100 µM at 348 GPCRs [2] (setting [11]), on 348 GPCRs [3] (setting [12]) and on 348 GPCRs [7] (setting [15]) were 1.27%, -1.56% and 1.22%, respectively. Further, at 348 GPCRs [6] (10µM), the “% GPCR activation compared to TPA” value worked out at 11.0377%.
Take `N#C[C@@]1(c2ccc3c(N)ncnn23)O[C@H](CO)[C@@H](O)[C@H]1O` [GS441524]: the activation at 10 µM on 348 GPCRs [1] (setting [18]) was 2.27%; at 348 GPCRs [4] (setting [24]) it was -1.92%; on 348 GPCRs [5] (setting [25]) it was 5.11%; at 348 GPCRs [8] (setting [22]), -2.28%; at 348 GPCRs [9] (setting [23]) it was -0.22%. Also, the values for the activation at 100 µM at 348 GPCRs [2] (setting [19]), at 348 GPCRs [3] (setting [20]) and on 348 GPCRs [7] (setting [21]) were -3.54%, -0.341% and 0.3%, respectively. In addition, at 348 GPCRs [6] (10µM), the “% GPCR activation compared to TPA” value is -0.4592%.
As for `CC(C)C(=O)OC[C@H]1O[C@@H](n2ccc(NO)nc2=O)[C@H](O)[C@@H]1O` [molnupiravir], the activation at 10 µM is -9.47% at 348 GPCRs [1] (setting [18]); -0.399% at 348 GPCRs [4] (setting [24]); -0.366% on 348 GPCRs [5] (setting [25]); -2.68% on 348 GPCRs [8] (setting [22]); -0.399% on 348 GPCRs [9] (setting [23]). The results for the activation at 100 µM on 348 GPCRs [2] (setting [19]), at 348 GPCRs [3] (setting [20]) and on 348 GPCRs [7] (setting [21]) were -0.059%, -6.1% and 2.63%, respectively. Moreover, the “% GPCR activation compared to TPA” value on 348 GPCRs [6] (10µM) was -11.8258%.
